Experimental data taken from PubChem BioAssay AID330 (DTP/NCI, 2004).
Where “and” joins values, the source holds several entries; their conditions need not be identical. Equal values may be shown once. Toxic doses and inconclusive results are not listed. Rule for the calls: active = survival T/C of 150% or more; inactive = T/C below 125% in these data.

System: P388 leukemia ip, CD2F1 mice, survival T/C
Assay: NCI In Vivo Anticancer Drug Screen. Data for tumor model P388 Leukemia (intraperitoneal) in CD2F1 (CDF1) mice
Conditions: endpoint: median survival time, higher = longer survival
In short: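 Mice carrying the transplanted tumor received test compound or vehicle. Survival was recorded in each group, and the value is the treated-group measurement divided by that of the vehicle-treated control group.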

[1] = dose: 60.0 mg/kg/injection, schedule: Q01DX005 (ip), vehicle: saline with Tween-80
[2] = dose: 120.0 mg/kg/injection, schedule: Q01DX005 (ip), vehicle: saline with Tween-80
[3] = dose: 240.0 mg/kg/injection, schedule: Q01DX005 (ip), vehicle: saline with Tween-80
[4] = dose: 50.0 mg/kg/injection, schedule: Q01DX009 (ip), vehicle: saline
[5] = dose: 100.0 mg/kg/injection, schedule: Q01DX009 (ip), vehicle: saline
[6] = dose: 200.0 mg/kg/injection, schedule: Q01DX009 (ip), vehicle: saline
[7] = dose: 60.0 mg/kg/injection, schedule: Q01DX005 (ip), vehicle: Klucel (hydroxypropylcellulose) (HPC)
[8] = dose: 120.0 mg/kg/injection, schedule: Q01DX005 (ip), vehicle: Klucel (hydroxypropylcellulose) (HPC)
[9] = dose: 240.0 mg/kg/injection, schedule: Q01DX005 (ip), vehicle: Klucel (hydroxypropylcellulose) (HPC)
[10] = dose: 50.0 mg/kg/injection, schedule: Q01DX005 (ip), vehicle: Klucel (hydroxypropylcellulose) (HPC)
[11] = dose: 100.0 mg/kg/injection, schedule: Q01DX005 (ip), vehicle: Klucel (hydroxypropylcellulose) (HPC)
[12] = dose: 200.0 mg/kg/injection, schedule: Q01DX005 (ip), vehicle: Klucel (hydroxypropylcellulose) (HPC)
[13] = dose: 50.0 mg/kg/injection, schedule: Q01DX009 (ip), vehicle: Klucel (hydroxypropylcellulose) (HPC)
[14] = dose: 200.0 mg/kg/injection, schedule: Q01DX009 (ip), vehicle: Klucel (hydroxypropylcellulose) (HPC)
[15] = dose: 50.0 mg/kg/injection, schedule: Q01DX009 (ip), vehicle: saline with Tween-80
[16] = dose: 50.0 mg/kg/injection, schedule: Q04DX003 (ip), vehicle: saline

Measured: T/C

CCOc1ccc(C(CC)c2cc3c(cc2OCC)OCO3)cc1 (stereo not given)
inactive: [1] 100 % of control | [2] 111 % of control | [3] 110 % of control

COc1ccc2cc1Oc1ccc(cc1)CC1c3cc(OC)c(OC)c(c3CCN1C)Oc1c(OC)c(OC)cc3c1[C@H](C2)NCC3 (stereo not given in full)
inactive: dose: 2.75 mg/kg/injection, schedule: Q01DX005 (ip), vehicle: Klucel (hydroxypropylcellulose) (HPC) 90 % of control | dose: 5.5 mg/kg/injection, schedule: Q01DX005 (ip), vehicle: Klucel (hydroxypropylcellulose) (HPC) 99 % of control | dose: 11.0 mg/kg/injection, schedule: Q01DX005 (ip), vehicle: Klucel (hydroxypropylcellulose) (HPC) 99 % of control | dose: 22.0 mg/kg/injection, schedule: Q01DX005 (ip), vehicle: Klucel (hydroxypropylcellulose) (HPC) 94 % of control

C=C1C(=O)OC2CC3(C)C(CCC(C)=O)C3CC12 (stereo not given)
inactive: [4] 96 % of control | [5] 94 % of control | [6] 98 % of control

CS(=O)(=O)/N=C/N(CCc1ccccc1)c1ccccc1
inactive: [7] 101 % of control | [8] 99 % of control | [9] 99 % of control

COC(=O)c1cc([O-])c2sc(C)c(C)[n+]2n1
inactive: [1] 100 % of control | [2] 100 % of control | [3] 100 % of control

O=C(/C=C/c1ccccc1)NCCC1(O)C(=O)Nc2ccccc21 (stereo not given)
inactive: dose: 25.0 mg/kg/injection, schedule: Q01DX005 (ip), vehicle: Klucel (hydroxypropylcellulose) (HPC) 102 % of control | [10] 100 % of control | [11] 90 % of control | [12] 88 % of control

Cc1cc(C)nc(NC(=O)Nc2cc(Cl)ccc2C)c1
inactive: [7] 88 % of control | [8] 86 % of control | [9] 89 % of control

c1ccc2sc(SSN3CCOCC3)nc2c1
inactive: dose: 50.0 mg/kg/injection, schedule: Q01DX009 (ip), vehicle: suspension in saline 97 % of control | dose: 100.0 mg/kg/injection, schedule: Q01DX009 (ip), vehicle: suspension in saline 106 % of control | dose: 200.0 mg/kg/injection, schedule: Q01DX009 (ip), vehicle: suspension in saline 95 % of control | dose: 400.0 mg/kg/injection, schedule: Q01DX009 (ip), vehicle: suspension in saline 90 % of control

CCSc1nc2ccc(NC(=O)CCC(=O)O)cc2s1
inactive: [13] 103 % of control | dose: 100.0 mg/kg/injection, schedule: Q01DX009 (ip), vehicle: Klucel (hydroxypropylcellulose) (HPC) 102 % of control | [14] 101 % of control

CCCCOC(=O)NCCCl
inactive: [15] 96 % of control | dose: 100.0 mg/kg/injection, schedule: Q01DX009 (ip), vehicle: saline with Tween-80 97 % of control | dose: 200.0 mg/kg/injection, schedule: Q01DX009 (ip), vehicle: saline with Tween-80 102 % of control

C=C(C)C1CC/C(C)=C/CCC2(C)OC2CC/C(CO)=C\C1O (stereo not given)
inactive: dose: 8.0 mg/kg/injection, schedule: Q01DX009 (ip), vehicle: saline with Tween-80 113 % of control | dose: 16.0 mg/kg/injection, schedule: Q01DX009 (ip), vehicle: saline with Tween-80 114 % of control | dose: 32.0 mg/kg/injection, schedule: Q01DX009 (ip), vehicle: saline with Tween-80 110 % of control | dose: 64.0 mg/kg/injection, schedule: Q01DX009 (ip), vehicle: saline with Tween-80 115 % of control

O=S(=O)(/C=C/c1cccnc1)/C=C/c1cccnc1
inactive: dose: 25.0 mg/kg/injection, schedule: Q01DX009 (ip), vehicle: saline with Tween-80 106 % of control | [15] 100 % of control

O=C(CN1C(=O)NC(c2ccccc2)(c2ccccc2)C1=O)NCCN1CCOCC1
inactive: [1] 97 % of control | [2] 96 % of control | [3] 97 % of control

CC1(C(=O)O)CCC2(C)CCC3(C)C(=CC(=O)C4C5(C)CCC(OC6OC(C(=O)O)C(O)C(O)C6OC6OC(C(=O)O)C(O)C(O)C6O)C(C)(C)C5CCC43C)C2C1 (stereo not given)
inactive: dose: 50.0 mg/kg/injection, schedule: Q01DX005 (ip), vehicle: saline 99 % of control | dose: 100.0 mg/kg/injection, schedule: Q01DX005 (ip), vehicle: saline 97 % of control | dose: 200.0 mg/kg/injection, schedule: Q01DX005 (ip), vehicle: saline 103 % of control

COc1ccc2c(c1OC(C)=O)-c1cc(O)cc3c1C(C2)N(C(=O)CN(CCCl)CCCl)CC3 (stereo not given)
active: dose: 12.5 mg/kg/injection, schedule: Q04DX003 (ip), vehicle: DMSO 174 % of control | dose: 25.0 mg/kg/injection, schedule: Q04DX003 (ip), vehicle: DMSO 168 % of control | dose: 25.0 mg/kg/injection, schedule: Q04DX003 (ip), vehicle: distilled water + Tween-80 154 % of control | dose: 50.0 mg/kg/injection, schedule: Q04DX003 (ip), vehicle: DMSO 169 % of control
inactive: dose: 3.13 mg/kg/injection, schedule: Q04DX003 (ip), vehicle: DMSO 116 % of control | dose: 6.25 mg/kg/injection, schedule: Q04DX003 (ip), vehicle: DMSO 123 % of control | [16] 87 % of control

NC(N)=NCCCCCC(=O)O
inactive: [4] 100 % of control | [5] 109 % of control

C=CCC(O)CC1CC2CCCCN2O1 (stereo not given)
inactive: [16] 104 % of control | dose: 100.0 mg/kg/injection, schedule: Q04DX003 (ip), vehicle: saline 104 % of control | dose: 200.0 mg/kg/injection, schedule: Q04DX003 (ip), vehicle: saline 99 % of control

CC(=O)C(C[n+]1ccccc1)c1ccccc1 (stereo not given)
inactive: dose: 15.0 mg/kg/injection, schedule: Q01DX005 (ip), vehicle: saline 98 % of control | dose: 30.0 mg/kg/injection, schedule: Q01DX005 (ip), vehicle: saline 98 % of control | dose: 60.0 mg/kg/injection, schedule: Q01DX005 (ip), vehicle: saline 102 % of control and 107 % of control

CC1(C)NC(=S)N(c2ccccc2C(=O)O)C2=C1CN(Cc1ccccc1)CC2
inactive: [4] 100 % of control | [5] 95 % of control | [6] 105 % of control

O=C(CSc1nc2ccccc2s1)NCCO
inactive: dose: 50.0 mg/kg/injection, schedule: Q01DX005 (ip), vehicle: saline with Tween-80 97 % of control | dose: 100.0 mg/kg/injection, schedule: Q01DX005 (ip), vehicle: saline with Tween-80 99 % of control | dose: 200.0 mg/kg/injection, schedule: Q01DX005 (ip), vehicle: saline with Tween-80 97 % of control

CC(C)c1c(CN(C)C(C)Cc2ccccc2)n(C)n(-c2ccccc2)c1=O (stereo not given)
inactive: [1] 108 % of control | [2] 105 % of control | [3] 98 % of control

CC1S(=O)(=O)O[Si](C)(C)CC[Si](C)(C)OS1(=O)=O
inactive: [10] 105 % of control | [11] 100 % of control | [12] 102 % of control

CCO/C=C1N=C(/C=C/c2ccc(Cl)cc2)OC/1=O
inactive: [1] 91 % of control | [2] 90 % of control

O=C1C2C3C=CC(C3)C2C(=O)N1CNc1ccc2nc(SC3C=CCCC3)sc2c1 (stereo not given)
inactive: dose: 12.5 mg/kg/injection, schedule: Q01DX009 (ip), vehicle: Klucel (hydroxypropylcellulose) (HPC) 106 % of control | dose: 25.0 mg/kg/injection, schedule: Q01DX009 (ip), vehicle: Klucel (hydroxypropylcellulose) (HPC) 101 % of control | [13] 90 % of control and 98 % of control | [14] 91 % of control

O=C(Cn1ccnc1)N1CCN(c2ccccc2)CC1
inactive: [1] 100 % of control | [2] 94 % of control | [3] 96 % of control

Cc1ccc(NCCCC2CCCN3CCCCC23)c2c(=O)c3ccccc3sc12 (stereo not given)
inactive: dose: 12.5 mg/kg/injection, schedule: Q01DX005 (ip), vehicle: distilled water + Tween-80 100 % of control | dose: 25.0 mg/kg/injection, schedule: Q01DX005 (ip), vehicle: distilled water + Tween-80 91 % of control | dose: 50.0 mg/kg/injection, schedule: Q01DX005 (ip), vehicle: distilled water + Tween-80 90 % of control

CN(C)CCCNc1cc(/C=C/c2cccc3ccccc23)nc2ccccc12
inactive: dose: 12.5 mg/kg/injection, schedule: Q01DX009 (ip), vehicle: saline 91 % of control | dose: 25.0 mg/kg/injection, schedule: Q01DX009 (ip), vehicle: saline 92 % of control | [4] 92 % of control

Cc1nc2n(c1/C=N/O)CCS2
inactive: dose: 50.0 mg/kg/injection, schedule: Q01DX001 (ip), vehicle: Klucel (hydroxypropylcellulose) (HPC) 90 % of control | dose: 100.0 mg/kg/injection, schedule: Q01DX001 (ip), vehicle: Klucel (hydroxypropylcellulose) (HPC) 99 % of control | dose: 200.0 mg/kg/injection, schedule: Q01DX001 (ip), vehicle: Klucel (hydroxypropylcellulose) (HPC) 93 % of control
